# From article PMC11284788, “NN1213 – A Potent, Long-Acting, and Selective Analog of Human Amylin” (Journal of Medicinal Chemistry, 2024)
# Where two headings read alike, the source gives them in different places. Numbered stars: 1 amine (or outer) side, 2 acyl side, 3 side chain; on linkers, the order of the positions; unused ones are H or OH. Bridge positions count the residues as written; N and C are the ends. Side chains are listed from the residue outwards. Peptide text beside a SMILES is read from it. * marks the point of attachment. C20 diacid = O=C(O)CCCCCCCCCCCCCCCCCCC(=O)*; γGlu = O=C(O)[C@H](CCC(=O)[*:2])N[*:1]; AEEA = NCCOCCOCC(=O)O
# Key:
# hAMY3R = biological target: T1, hAMY3R (Homo sapiens, UniProt O60896+P30988); assay: cAMP-responsive element luciferase reporter assay, human AMY3R; assay type: cell-based; design: expressed in transfected cells; details: for ratio hCTR/hAMY3R: ratio of luciferase EC50 values
# T1 sequence (P30988 25-474): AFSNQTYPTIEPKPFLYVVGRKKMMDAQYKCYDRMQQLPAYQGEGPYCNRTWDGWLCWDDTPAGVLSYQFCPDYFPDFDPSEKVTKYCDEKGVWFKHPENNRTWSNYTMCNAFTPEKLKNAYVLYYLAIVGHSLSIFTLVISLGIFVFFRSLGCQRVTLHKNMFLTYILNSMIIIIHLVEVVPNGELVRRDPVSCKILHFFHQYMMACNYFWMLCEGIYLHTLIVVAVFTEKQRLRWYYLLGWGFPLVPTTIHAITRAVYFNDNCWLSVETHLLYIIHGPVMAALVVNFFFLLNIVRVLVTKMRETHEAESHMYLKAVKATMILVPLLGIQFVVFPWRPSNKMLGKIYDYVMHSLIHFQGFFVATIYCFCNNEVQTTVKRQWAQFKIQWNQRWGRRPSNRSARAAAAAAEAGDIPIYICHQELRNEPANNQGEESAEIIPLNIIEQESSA
# T1 sequence (O60896 24-148 partner): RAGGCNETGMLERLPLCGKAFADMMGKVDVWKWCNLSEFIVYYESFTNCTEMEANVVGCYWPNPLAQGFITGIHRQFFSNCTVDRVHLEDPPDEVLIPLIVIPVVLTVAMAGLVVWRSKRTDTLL
# [1] = Solubility versus pH profile
# [2] = ThT assay: fibril formation propensity and peptide recovery; assay type: physicochemical; details: for recovery: residual dissolved peptide after 45 h of shaking, centrifugation and 0.22 μm filtration, HPLC, relative to amount before stress; for ThT, pH 4.0 lag-time: 10 mM glycylglycine pH 4.0, 1 μM ThT
# In short: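 Peptides at 250 μM in 10 mM glycylglycine (pH 4.0) or HEPES (pH 7.5) with 1 μM ThT, shaken at 37 °C, 960 rpm, for 45 h; ThT fluorescence (ex 444/em 485 nm) read every 20 min. Lag time is the lowest of four replicates (>45 h if none); recovery is soluble peptide by HPLC after centrifugation/filtration, relative to pre-stress.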
# [3] = luciferase (human receptor assay), Tables S12 and S14, read-out: hAMY3R pEC50 (converted)
# [4] = luciferase (human receptor assay), BHK cells stably expressing hCTR+RAMP3 and CRE-luciferase, 3 h, 37 °C, 10% FBS, read-out: hAMY3R EC50
# [5] = bis-tris-propane buffer, pH 6, aqueous buffer
# [6] = bis-tris-propane buffer, pH 6.5, aqueous buffer
# [7] = bis-tris-propane buffer, pH 7, aqueous buffer
# [8] = bis-tris-propane buffer, pH 7.5, aqueous buffer
# [9] = bis-tris-propane buffer, pH 8, aqueous buffer
# [10] = lactate buffer, pH 4, aqueous buffer
# [11] = lactate buffer, pH 5, aqueous buffer
# [12] = 250 μM peptide, 37 °C, 960 rpm, 45 h, lowest of four replicas, average of experiments
Compound,EC50 (hAMY3R; [3]),EC50 (hAMY3R; [4]),ratio hCTR/hAMY3R (hAMY3R),"solubility kinetic [1, 5]","solubility kinetic [1, 6]","solubility kinetic [1, 7]","solubility kinetic [1, 8]","solubility kinetic [1, 9]","solubility kinetic [1, 10]","solubility kinetic [1, 11]","ThT, pH 7.5 lag-time ([2]; 250 μM peptide, 10 mM HEPES pH 7.5, 1 μM ThT, 37 °C, 960 rpm, 45 h, lowest of four replicas, average of experiments)",recovery ([2]; pH 7.5),"hAMY3R pEC50 (hAMY3R; luciferase (human receptor assay), Tables S12 and S14)","ThT, pH 4.0 lag-time [2, 12]",recovery ([2]; pH 4.0)
CC[C@H](C)[C@H](NC(=O)[C@@H]1CCCN1C(=O)CNC(=O)[C@H](Cc1ccccc1)NC(=O)[C@H](CC(N)=O)NC(=O)[C@@H]1CCCN1C(=O)[C@H](CO)NC(=O)[C@H](CO)NC(=O)[C@H](Cc1c[nH]cn1)NC(=O)[C@H](CCCNC(=N)N)NC(=O)[C@H](CC(C)C)NC(=O)[C@H](Cc1ccccc1)NC(=O)[C@H](CC(=O)O)NC(=O)[C@H](C)NC(=O)[C@H](CC(C)C)NC(=O)[C@H](CCCNC(=N)N)NC(=O)[C@H](CCC(N)=O)NC(=O)[C@@H](NC(=O)[C@H](C)NC(=O)[C@@H]1CSSC[C@H](NC(=O)[C@@H](N)CCCCNC(=O)CC[C@H](NC(=O)CC[C@H](NC(=O)CCCCCCCCCCCCCCCCCCC(=O)O)C(=O)O)C(=O)O)C(=O)N[C@@H](CC(N)=O)C(=O)N[C@@H]([C@@H](C)O)C(=O)N[C@@H](C)C(=O)N[C@@H]([C@@H](C)O)C(=O)N1)[C@@H](C)O)C(=O)N[C@@H](CC(C)C)C(=O)N[C@@H](CO)C(=O)N[C@@H](CO)C(=O)N[C@H](C(=O)N[C@@H](CC(N)=O)C(=O)N[C@H](C(=O)NCC(=O)N[C@@H](CO)C(=O)N[C@@H](CC(=O)O)C(=O)N[C@H](C(=O)N[C@@H](Cc1ccc(O)cc1)C(N)=O)[C@@H](C)O)C(C)C)[C@@H](C)O [Peptide 3] (H-K([γGlu-γGlu-C20 diacid])CNTATCATQRLADFLRHSSPNFGPILSSTNVGSDTY-NH2; disulfide 2-7),316 pM,319 pM,9.4,1 µM,1 µM,1 µM,1 µM,2 µM,1 µM,1 µM,0.3 h,19%,–,–,–
CC[C@H](C)[C@H](NC(=O)[C@H](C)NC(=O)CNC(=O)[C@H](Cc1ccccc1)NC(=O)[C@H](CC(N)=O)NC(=O)[C@@H]1CCCN1C(=O)[C@H](CO)NC(=O)[C@H](CO)NC(=O)[C@H](Cc1c[nH]cn1)NC(=O)[C@H](CCCNC(=N)N)NC(=O)[C@H](CC(C)C)NC(=O)[C@H](Cc1ccccc1)NC(=O)[C@H](CC(N)=O)NC(=O)[C@H](C)NC(=O)[C@H](CC(C)C)NC(=O)[C@H](CCCNC(=N)N)NC(=O)[C@H](CCC(N)=O)NC(=O)[C@@H](NC(=O)[C@H](C)NC(=O)[C@@H]1CSSC[C@H](NC(=O)[C@H](CCCCN)NC(=O)CC[C@H](NC(=O)CCCCCCCCCCCCCCCCCCC(=O)O)C(=O)O)C(=O)N[C@@H](CC(N)=O)C(=O)N[C@@H]([C@@H](C)O)C(=O)N[C@@H](C)C(=O)N[C@@H]([C@@H](C)O)C(=O)N1)[C@@H](C)O)C(=O)N1CCC[C@H]1C(=O)N[C@@H](CO)C(=O)N[C@@H](CO)C(=O)N[C@H](C(=O)N1CCC[C@H]1C(=O)N[C@H](C(=O)NCC(=O)N[C@@H](CO)C(=O)N[C@@H](CCC(=O)O)C(=O)N[C@H](C(=O)N[C@@H](Cc1ccc(O)cc1)C(N)=O)[C@@H](C)O)C(C)C)[C@@H](C)O [Peptide 11] ({C20 diacid-γGlu}-KCNTATCATQRLANFLRHSSPNFGAIPSSTPVGSETY-NH2; disulfide 2-7),186 pM,186 pM,11,≥ 200 µM,≥ 200 µM,≥ 200 µM,≥ 200 µM,≥ 200 µM,≥ 200 µM,≥ 200 µM,–,–,–,40 h,74%

# The remaining lines, values ahead:
EC50 (hAMY3R; [3]),EC50 (hAMY3R; [4]),ratio hCTR/hAMY3R (hAMY3R),"solubility kinetic [1, 5]","solubility kinetic [1, 6]","solubility kinetic [1, 7]","solubility kinetic [1, 8]","solubility kinetic [1, 9]","solubility kinetic [1, 10]","solubility kinetic [1, 11]","ThT, pH 7.5 lag-time ([2]; 250 μM peptide, 10 mM HEPES pH 7.5, 1 μM ThT, 37 °C, 960 rpm, 45 h, lowest of four replicas, average of experiments)",recovery ([2]; pH 7.5),"hAMY3R pEC50 (hAMY3R; luciferase (human receptor assay), Tables S12 and S14)","ThT, pH 4.0 lag-time [2, 12]",recovery ([2]; pH 4.0),Compound
–,432 pM,23,≥ 200 µM,≥ 200 µM,≥ 200 µM,≥ 200 µM,≥ 200 µM,≥ 200 µM,≥ 200 µM,–,–,9.36,34 h,0%,CC[C@H](C)[C@H](NC(=O)[C@H](C)NC(=O)CNC(=O)[C@H](Cc1ccccc1)NC(=O)[C@H](CC(N)=O)NC(=O)[C@@H]1CCCN1C(=O)[C@H](CO)NC(=O)[C@H](CO)NC(=O)[C@H](Cc1c[nH]cn1)NC(=O)[C@H](CCCNC(=N)N)NC(=O)[C@H](CC(C)C)NC(=O)[C@H](Cc1ccccc1)NC(=O)[C@H](CC(N)=O)NC(=O)[C@H](C)NC(=O)[C@H](CC(C)C)NC(=O)[C@H](CCCNC(=N)N)NC(=O)[C@H](CCC(N)=O)NC(=O)[C@@H](NC(=O)[C@H](C)NC(=O)[C@@H]1CSSC[C@H](NC(=O)[C@H](CCCCN)NC(=O)COCCOCCNC(=O)COCCOCCNC(=O)CC[C@H](NC(=O)CCCCCCCCCCCCCCCCCCC(=O)O)C(=O)O)C(=O)N[C@@H](CC(N)=O)C(=O)N[C@@H]([C@@H](C)O)C(=O)N[C@@H](C)C(=O)N[C@@H]([C@@H](C)O)C(=O)N1)[C@@H](C)O)C(=O)N1CCC[C@H]1C(=O)N[C@@H](CO)C(=O)N[C@@H](CO)C(=O)N[C@H](C(=O)N[C@@H](CC(N)=O)C(=O)N[C@H](C(=O)NCC(=O)N[C@@H](CO)C(=O)N[C@@H](CC(N)=O)C(=O)N[C@H](C(=O)N[C@@H](Cc1ccc(O)cc1)C(N)=O)[C@@H](C)O)C(C)C)[C@@H](C)O [Peptide 10]
46.8 pM,47 pM,6.7,≥ 200 µM,≥ 200 µM,≥ 200 µM,≥ 200 µM,≥ 200 µM,≥ 200 µM,≥ 200 µM,–,–,–,>45 h,78%,CC[C@H](C)[C@H](NC(=O)[C@H](C)NC(=O)CNC(=O)[C@H](Cc1ccccc1)NC(=O)[C@H](CC(N)=O)NC(=O)[C@@H]1CCCN1C(=O)[C@H](CO)NC(=O)[C@H](CO)NC(=O)[C@H](Cc1c[nH]cn1)NC(=O)[C@H](CCCNC(=N)N)NC(=O)[C@H](CC(C)C)NC(=O)[C@H](Cc1ccccc1)NC(=O)[C@H](CCC(=O)O)NC(=O)[C@H](C)NC(=O)[C@H](CC(C)C)NC(=O)[C@H](CCCNC(=N)N)NC(=O)[C@H](CCC(N)=O)NC(=O)[C@@H](NC(=O)[C@H](C)NC(=O)[C@@H]1CSSC[C@H](NC(=O)[C@H](CCCCN)NC(=O)CC[C@H](NC(=O)CCCCCCCCCCCCCCCCCCC(=O)O)C(=O)O)C(=O)N[C@@H](CC(N)=O)C(=O)N[C@@H]([C@@H](C)O)C(=O)N[C@@H](C)C(=O)N[C@@H]([C@@H](C)O)C(=O)N1)[C@@H](C)O)C(=O)N1CCC[C@H]1C(=O)N[C@@H](CO)C(=O)N[C@@H](CO)C(=O)N[C@H](C(=O)N[C@@H](CC(N)=O)C(=O)N[C@H](C(=O)NCC(=O)N1CCC[C@H]1C(=O)N[C@@H](CC(N)=O)C(=O)N[C@H](C(=O)N[C@@H](Cc1ccc(O)cc1)C(N)=O)[C@@H](C)O)C(C)C)[C@@H](C)O [Peptide 12] ({C20 diacid-γGlu}-KCNTATCATQRLAEFLRHSSPNFGAIPSSTNVGPNTY-NH2; disulfide 2-7)
–,–,19,≥ 200 µM,≥ 200 µM,≥ 200 µM,≥ 200 µM,≥ 200 µM,≥ 200 µM,≥ 200 µM,–,–,–,15 h,30%,CC[C@H](C)[C@H](NC(=O)[C@H](C)NC(=O)CNC(=O)[C@H](Cc1ccccc1)NC(=O)[C@H](CC(N)=O)NC(=O)[C@@H]1CCCN1C(=O)[C@H](CO)NC(=O)[C@H](CO)NC(=O)[C@H](Cc1c[nH]cn1)NC(=O)[C@H](CCCNC(=N)N)NC(=O)[C@H](CC(C)C)NC(=O)[C@H](Cc1ccccc1)NC(=O)[C@H](CC(N)=O)NC(=O)[C@H](C)NC(=O)[C@H](CC(C)C)NC(=O)[C@H](CCCNC(=N)N)NC(=O)[C@H](CCC(N)=O)NC(=O)[C@@H](NC(=O)[C@H](C)NC(=O)[C@@H]1CSSC[C@H](NC(=O)[C@H](CCCCN)NC(=O)COCCOCCNC(=O)CC[C@H](NC(=O)CCCCCCCCCCCCCCCCCCC(=O)O)C(=O)O)C(=O)N[C@@H](CC(N)=O)C(=O)N[C@@H]([C@@H](C)O)C(=O)N[C@@H](C)C(=O)N[C@@H]([C@@H](C)O)C(=O)N1)[C@@H](C)O)C(=O)N1CCC[C@H]1C(=O)N[C@@H](CO)C(=O)N[C@@H](CO)C(=O)N[C@H](C(=O)N[C@@H](CC(N)=O)C(=O)N[C@H](C(=O)NCC(=O)N[C@@H](CO)C(=O)N[C@@H](Cc1c[nH]cn1)C(=O)N[C@H](C(=O)N[C@@H](Cc1ccc(O)cc1)C(N)=O)[C@@H](C)O)C(C)C)[C@@H](C)O [Peptide 18] ({C20 diacid-γGlu-AEEA}-KCNTATCATQRLANFLRHSSPNFGAIPSSTNVGSHTY-NH2; disulfide 2-7; N-terminus assumed)
